In ChEMBL document CHEMBL4152385, “Synthesis, Receptor Affinity, and Antiallodynic Activity of Spirocyclic σ Receptor Ligands with Exocyclic Amino Moiety” (J Med Chem, 2018):
The source made the active and inactive calls. The calls are words filed in the database; no cut-off is given here.

What was measured:
[1] = biological target: T1, Sigma intracellular receptor 2 (Rattus norvegicus, UniProt Q5U3Y7); experiment: Displacement of [3H]-di-o-tolylguanidine from sigma2 receptor in rat liver membranes incubated for 120 mins by scintillation counting method; assay type: cell membranes, Membrane
T1 sequence (Q5U3Y7 whole entry): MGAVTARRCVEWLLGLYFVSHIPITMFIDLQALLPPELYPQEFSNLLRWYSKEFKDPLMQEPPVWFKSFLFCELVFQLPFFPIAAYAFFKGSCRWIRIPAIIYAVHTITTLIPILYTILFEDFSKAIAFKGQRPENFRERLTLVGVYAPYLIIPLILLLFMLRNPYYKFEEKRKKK

[2] = biological target: T2, 5-hydroxytryptamine receptor 1A (Homo sapiens) (UniProt P08908); experiment: Inhibition of 5-HT1A receptor (unknown origin) at 1 uM relative to control
T2 sequence (whole entry): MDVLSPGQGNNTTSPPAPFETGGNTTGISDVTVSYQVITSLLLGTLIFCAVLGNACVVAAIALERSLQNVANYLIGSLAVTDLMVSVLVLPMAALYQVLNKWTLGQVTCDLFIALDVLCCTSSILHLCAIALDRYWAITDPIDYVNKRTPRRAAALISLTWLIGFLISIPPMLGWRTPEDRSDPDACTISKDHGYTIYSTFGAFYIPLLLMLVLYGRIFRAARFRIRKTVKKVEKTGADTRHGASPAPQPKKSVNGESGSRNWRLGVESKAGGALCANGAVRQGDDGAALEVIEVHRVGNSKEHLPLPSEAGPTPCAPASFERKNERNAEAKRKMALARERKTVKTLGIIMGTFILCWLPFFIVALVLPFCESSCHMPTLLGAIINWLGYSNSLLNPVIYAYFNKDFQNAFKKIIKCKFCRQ

[3] = biological target: Voltage-gated inwardly rectifying potassium channel KCNH2 (Homo sapiens, UniProt Q12809); experiment: Inhibition of human ERG expressed in CHO cells by automated patch clamp assay; assay type: cell-based
Sequence of Voltage-gated inwardly rectifying potassium channel KCNH2 (Q12809 whole entry): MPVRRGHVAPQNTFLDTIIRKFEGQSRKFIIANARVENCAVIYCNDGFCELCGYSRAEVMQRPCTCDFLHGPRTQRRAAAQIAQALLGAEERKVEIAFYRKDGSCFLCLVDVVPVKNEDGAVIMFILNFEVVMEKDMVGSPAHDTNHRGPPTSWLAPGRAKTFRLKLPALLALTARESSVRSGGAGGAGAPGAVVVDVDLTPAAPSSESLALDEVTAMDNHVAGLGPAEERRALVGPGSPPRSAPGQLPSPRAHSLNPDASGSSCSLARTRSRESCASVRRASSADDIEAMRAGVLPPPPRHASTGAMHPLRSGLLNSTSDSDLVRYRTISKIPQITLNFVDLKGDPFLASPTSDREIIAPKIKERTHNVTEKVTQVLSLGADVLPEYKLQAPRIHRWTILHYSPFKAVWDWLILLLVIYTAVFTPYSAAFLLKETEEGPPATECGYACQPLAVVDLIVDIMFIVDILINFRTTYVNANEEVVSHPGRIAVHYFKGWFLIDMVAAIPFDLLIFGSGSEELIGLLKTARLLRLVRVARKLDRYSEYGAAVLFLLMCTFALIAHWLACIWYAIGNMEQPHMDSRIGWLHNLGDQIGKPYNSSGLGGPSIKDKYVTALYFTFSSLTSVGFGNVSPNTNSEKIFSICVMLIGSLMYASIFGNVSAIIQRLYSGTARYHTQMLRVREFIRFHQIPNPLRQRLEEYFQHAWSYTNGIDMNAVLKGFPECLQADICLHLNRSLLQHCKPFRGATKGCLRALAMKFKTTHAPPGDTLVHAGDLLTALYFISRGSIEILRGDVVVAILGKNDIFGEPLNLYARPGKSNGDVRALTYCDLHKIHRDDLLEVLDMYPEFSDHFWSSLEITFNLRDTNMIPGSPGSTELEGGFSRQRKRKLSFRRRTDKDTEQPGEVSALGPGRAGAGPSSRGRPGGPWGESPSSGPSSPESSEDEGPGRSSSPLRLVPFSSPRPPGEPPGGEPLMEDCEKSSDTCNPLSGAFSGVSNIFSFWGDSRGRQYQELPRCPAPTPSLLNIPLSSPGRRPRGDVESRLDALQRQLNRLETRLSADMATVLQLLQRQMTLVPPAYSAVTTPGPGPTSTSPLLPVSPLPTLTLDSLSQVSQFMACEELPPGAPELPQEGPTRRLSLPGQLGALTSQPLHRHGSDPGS

[4] = biological target: Kappa-type opioid receptor (Cavia porcellus, UniProt P41144); experiment: Displacement of [3H]U-69,593 from KOR in guinea pig brain membranes incubated for 120 mins by scintillation counting method; assay type: cell membranes, Membrane
[5] = Stability in pH 7.4 phosphate buffer assessed as parent compound remaining after 24 hrs by HPLC; assay type: physicochemical; settings: pH 7.4, 24 h
[6] = biological target: 5-hydroxytryptamine receptor 2B (Homo sapiens) (UniProt P41595); experiment: Inhibition of 5-HT2B receptor (unknown origin) at 1 uM relative to control
Sequence of 5-hydroxytryptamine receptor 2B (Homo sapiens) (P41595 whole entry): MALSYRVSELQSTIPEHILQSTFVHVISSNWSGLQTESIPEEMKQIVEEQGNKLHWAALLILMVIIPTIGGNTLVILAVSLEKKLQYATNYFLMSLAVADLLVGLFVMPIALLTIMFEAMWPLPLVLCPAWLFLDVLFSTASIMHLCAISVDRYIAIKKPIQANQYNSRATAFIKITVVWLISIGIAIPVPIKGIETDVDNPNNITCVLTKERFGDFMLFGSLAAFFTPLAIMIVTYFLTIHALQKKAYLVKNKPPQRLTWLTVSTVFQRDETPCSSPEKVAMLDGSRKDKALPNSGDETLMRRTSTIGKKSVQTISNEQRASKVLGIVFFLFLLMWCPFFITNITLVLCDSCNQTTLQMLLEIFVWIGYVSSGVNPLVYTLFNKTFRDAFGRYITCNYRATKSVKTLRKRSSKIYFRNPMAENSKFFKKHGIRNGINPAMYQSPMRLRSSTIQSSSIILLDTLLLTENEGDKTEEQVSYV

[7] = biological target: Histamine H1 receptor (Homo sapiens) (UniProt P35367); experiment: Inhibition of histamine H1 receptor (unknown origin) at 1 uM relative to control
[8] = biological target: Sodium-dependent dopamine transporter (Homo sapiens) (UniProt Q01959); experiment: Inhibition of DAT (unknown origin) at 1 uM relative to control
[9] = biological target: Glutamate receptor ionotropic, NMDA 2B (Homo sapiens, UniProt Q13224); experiment: Displacement of [3H]ifenprodil from GluN2B (unknown origin) expressed in mouse L(tk-) cell membranes incubated for 120 mins by scintillation counting method
Sequence of Glutamate receptor ionotropic, NMDA 2B (Q13224 whole entry): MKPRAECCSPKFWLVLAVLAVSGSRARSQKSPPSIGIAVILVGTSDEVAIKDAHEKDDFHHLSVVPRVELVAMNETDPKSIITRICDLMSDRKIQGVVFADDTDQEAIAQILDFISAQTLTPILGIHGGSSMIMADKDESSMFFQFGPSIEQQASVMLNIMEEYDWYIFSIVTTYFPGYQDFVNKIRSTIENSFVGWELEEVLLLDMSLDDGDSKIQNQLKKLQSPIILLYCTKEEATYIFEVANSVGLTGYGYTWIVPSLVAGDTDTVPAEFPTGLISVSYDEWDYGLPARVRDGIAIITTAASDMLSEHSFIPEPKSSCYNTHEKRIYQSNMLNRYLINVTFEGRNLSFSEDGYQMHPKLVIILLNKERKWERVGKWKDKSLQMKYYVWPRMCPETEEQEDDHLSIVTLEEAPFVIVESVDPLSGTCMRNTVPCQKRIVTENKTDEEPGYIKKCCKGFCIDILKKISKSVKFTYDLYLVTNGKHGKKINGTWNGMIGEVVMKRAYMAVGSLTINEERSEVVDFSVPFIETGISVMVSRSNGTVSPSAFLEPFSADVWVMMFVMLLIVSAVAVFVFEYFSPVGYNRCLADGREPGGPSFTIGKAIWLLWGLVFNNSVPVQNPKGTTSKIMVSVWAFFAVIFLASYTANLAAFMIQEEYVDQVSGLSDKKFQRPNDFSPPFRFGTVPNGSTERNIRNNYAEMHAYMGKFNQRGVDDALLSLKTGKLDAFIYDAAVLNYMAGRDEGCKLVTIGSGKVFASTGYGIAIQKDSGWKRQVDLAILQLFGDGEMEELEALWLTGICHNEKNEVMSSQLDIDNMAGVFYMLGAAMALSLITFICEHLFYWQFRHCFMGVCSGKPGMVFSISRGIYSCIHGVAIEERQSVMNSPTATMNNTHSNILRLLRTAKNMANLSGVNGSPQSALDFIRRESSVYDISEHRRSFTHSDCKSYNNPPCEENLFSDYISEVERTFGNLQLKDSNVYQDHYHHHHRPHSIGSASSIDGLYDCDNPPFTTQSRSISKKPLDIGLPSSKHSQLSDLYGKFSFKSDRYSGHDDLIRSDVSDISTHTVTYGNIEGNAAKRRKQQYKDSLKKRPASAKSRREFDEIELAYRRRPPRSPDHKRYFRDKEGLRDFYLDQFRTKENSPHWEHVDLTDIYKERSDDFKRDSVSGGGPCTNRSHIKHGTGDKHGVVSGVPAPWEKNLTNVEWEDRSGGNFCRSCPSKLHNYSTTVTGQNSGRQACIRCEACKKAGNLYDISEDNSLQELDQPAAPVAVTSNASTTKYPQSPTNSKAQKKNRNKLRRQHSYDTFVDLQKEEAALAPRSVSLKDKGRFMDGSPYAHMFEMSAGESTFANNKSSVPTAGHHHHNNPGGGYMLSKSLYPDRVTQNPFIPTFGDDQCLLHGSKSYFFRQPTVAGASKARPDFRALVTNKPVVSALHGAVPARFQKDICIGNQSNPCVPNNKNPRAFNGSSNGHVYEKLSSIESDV

[10] = Displacement of [3H]-(+)-MK-801 from NMDA PCP binding site in pig brain cortex membrane incubated for 120 mins by scintillation counting method; assay type: cell membranes, Sus scrofa
[11] = biological target: Sodium-dependent serotonin transporter (Homo sapiens) (UniProt P31645); experiment: Inhibition of SERT (unknown origin) at 1 uM relative to control
Sequence of Sodium-dependent serotonin transporter (Homo sapiens) (P31645 whole entry, looked up): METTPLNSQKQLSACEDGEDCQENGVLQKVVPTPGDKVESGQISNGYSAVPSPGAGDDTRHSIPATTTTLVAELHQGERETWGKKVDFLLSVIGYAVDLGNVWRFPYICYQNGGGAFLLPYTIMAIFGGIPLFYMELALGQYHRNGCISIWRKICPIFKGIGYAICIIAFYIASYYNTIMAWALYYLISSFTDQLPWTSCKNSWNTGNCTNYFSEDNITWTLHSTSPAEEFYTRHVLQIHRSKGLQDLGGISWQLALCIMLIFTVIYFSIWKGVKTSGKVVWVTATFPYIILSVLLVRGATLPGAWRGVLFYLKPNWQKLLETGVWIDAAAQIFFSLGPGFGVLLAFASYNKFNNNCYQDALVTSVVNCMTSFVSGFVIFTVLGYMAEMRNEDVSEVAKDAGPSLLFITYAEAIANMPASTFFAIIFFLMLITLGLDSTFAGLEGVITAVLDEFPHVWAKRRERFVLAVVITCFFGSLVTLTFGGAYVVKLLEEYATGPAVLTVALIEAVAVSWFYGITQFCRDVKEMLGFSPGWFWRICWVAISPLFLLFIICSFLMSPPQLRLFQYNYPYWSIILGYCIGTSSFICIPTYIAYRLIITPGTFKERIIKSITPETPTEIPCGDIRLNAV

[12] = biological target: Sodium-dependent noradrenaline transporter (Homo sapiens) (UniProt P23975); experiment: Inhibition of NET (unknown origin) at 1 uM relative to control
Sequence of Sodium-dependent noradrenaline transporter (Homo sapiens) (P23975 whole entry): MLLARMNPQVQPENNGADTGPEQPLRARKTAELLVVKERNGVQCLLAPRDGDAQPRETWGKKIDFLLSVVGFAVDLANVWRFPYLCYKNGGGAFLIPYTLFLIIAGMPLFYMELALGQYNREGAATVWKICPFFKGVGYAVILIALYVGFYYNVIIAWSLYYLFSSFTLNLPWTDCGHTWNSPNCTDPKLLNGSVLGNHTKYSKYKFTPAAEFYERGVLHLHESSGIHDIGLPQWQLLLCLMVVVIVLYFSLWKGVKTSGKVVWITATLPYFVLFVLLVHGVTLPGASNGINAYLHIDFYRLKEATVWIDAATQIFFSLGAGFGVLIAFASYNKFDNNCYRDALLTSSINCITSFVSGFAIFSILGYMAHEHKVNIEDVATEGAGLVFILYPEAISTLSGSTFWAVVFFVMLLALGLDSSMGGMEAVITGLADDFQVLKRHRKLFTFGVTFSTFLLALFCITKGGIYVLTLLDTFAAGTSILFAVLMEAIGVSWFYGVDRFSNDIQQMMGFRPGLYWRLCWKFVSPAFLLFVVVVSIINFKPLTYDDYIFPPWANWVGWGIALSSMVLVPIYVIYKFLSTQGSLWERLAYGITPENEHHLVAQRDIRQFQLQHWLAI

[13] = biological target: Sigma non-opioid intracellular receptor 1 (Cavia porcellus, UniProt Q60492); experiment: Displacement of [3H]-(+)-pentazocine from sigma1 receptor in guinea pig brain cortex membranes incubated for 120 mins by scintillation counting method; assay type: cell membranes
Sequence of Sigma non-opioid intracellular receptor 1 (Q60492 whole entry): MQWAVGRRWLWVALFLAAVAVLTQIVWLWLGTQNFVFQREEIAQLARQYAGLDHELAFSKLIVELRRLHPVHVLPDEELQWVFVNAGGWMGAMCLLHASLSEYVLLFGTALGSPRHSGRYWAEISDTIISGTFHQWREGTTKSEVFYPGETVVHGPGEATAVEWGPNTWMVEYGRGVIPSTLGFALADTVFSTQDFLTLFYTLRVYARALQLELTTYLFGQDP

[14] = biological target: T3, Alpha-1A adrenergic receptor (Homo sapiens) (UniProt P35348); experiment: Inhibition of alpha-1A adrenergic receptor (unknown origin) at 1 uM relative to control
T3 sequence (whole entry): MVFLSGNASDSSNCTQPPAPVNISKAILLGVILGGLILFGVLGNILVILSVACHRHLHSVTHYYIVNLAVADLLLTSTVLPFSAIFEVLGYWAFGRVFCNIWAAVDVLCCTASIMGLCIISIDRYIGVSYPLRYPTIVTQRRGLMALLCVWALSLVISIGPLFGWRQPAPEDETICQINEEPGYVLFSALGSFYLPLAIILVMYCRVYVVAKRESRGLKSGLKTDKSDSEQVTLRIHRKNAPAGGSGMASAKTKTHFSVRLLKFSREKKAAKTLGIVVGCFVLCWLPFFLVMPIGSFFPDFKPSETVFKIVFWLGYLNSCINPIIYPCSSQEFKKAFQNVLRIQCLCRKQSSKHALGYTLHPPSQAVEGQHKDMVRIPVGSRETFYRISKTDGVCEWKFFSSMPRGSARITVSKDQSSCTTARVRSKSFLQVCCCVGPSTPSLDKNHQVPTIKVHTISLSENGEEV

[15] = Stability in pH 2 aqueous HCl solution assessed as parent compound remaining after 24 hrs by HPLC; assay type: physicochemical; settings: buffer, pH 2, 24 h
[16] = biological target: T1, Sigma intracellular receptor 2; experiment: Displacement of [3H]-DTG from sigma2 receptor in rat liver membranes; assay type: cell membranes, Membrane
[17] = test system: Mus musculus; experiment: Antiallodynic activity in CD1 mouse model of capsaicin-induced mechanical allodynia assessed as effect on paw withdrawal latency time at 4 to 64 mg/kg, sc administered 30 mins before capsaicin addition and measured at 30 secs intervals; assay type: functional, organism-based
[18] = test system: Mus musculus; experiment: Antiallodynic activity in CD1 mouse model of capsaicin-induced mechanical allodynia assessed as effect on paw withdrawal latency time at 2 to 64 mg/kg, sc administered 30 mins before capsaicin addition and measured at 30 secs intervals; assay type: functional, organism-based
[19] = Selectivity ratio of Ki for sigma2 receptor in rat liver membranes to Ki for sigma1 receptor in guinea pig brain cortex membranes; assay type: cell membranes
[20] = biological target: Mu-type opioid receptor (Cavia porcellus, UniProt P97266); experiment: Displacement of [3H]DAMGO from MOR in guinea pig brain membranes incubated for 120 mins by scintillation counting method; assay type: cell membranes, Membrane
Sequence of Mu-type opioid receptor (P97266 whole entry): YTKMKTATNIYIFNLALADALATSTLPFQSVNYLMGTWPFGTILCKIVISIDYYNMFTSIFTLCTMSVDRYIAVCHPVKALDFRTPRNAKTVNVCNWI

[21] = biological target: Delta-type opioid receptor (Rattus norvegicus, UniProt P33533); experiment: Displacement of [3H]DPDPE from DOR in rat brain membranes incubated for 120 mins by scintillation counting method; assay type: cell membranes, Membrane
[22] = in vitro; settings: mouse, liver microsomes
Description: Metabolic stability in mouse liver microsomes assessed as compound remaining at 25 uM after 1 hr in presence of NADPH by LC-MS analysis

[23] = test system: Mus musculus; experiment: Antiallodynic activity in CD1 mouse model of capsaicin-induced mechanical allodynia assessed as effect on paw withdrawal latency time at 4 to 32 mg/kg, sc administered 5 mins after sigma1 receptor agonist PRE-084 dosing followed by capsaicin addition and measured after 30 mins post compound dose; assay type: functional, organism-based
[24] = test system: Mus musculus; experiment: Antiallodynic activity in CD1 mouse model of capsaicin-induced mechanical allodynia assessed as effect on paw withdrawal latency time at 32 mg/kg, sc administered 5 mins after sigma1 receptor agonist PRE-084 dosing followed by capsaicin addition and measured after 30 mins post compound dose; assay type: functional, organism-based

## O[C@H]1Cc2ccccc2C2(CCC(N3CCN(C4CCCCC4)CC3)CC2)O1 (some centres undefined)
[1]
  Ki: 27 nM
[2]
  inhibition: 55%
[3]
  IC50: 3210 nM
[4]
  Ki: 781 nM
[5]
  Stability: Stable
[6]
  inhibition: < 50%
[7]
  inhibition: 76%
[8]
  inhibition: < 50%
[9]
  Ki: 34 nM
[10]
  Ki: > 1000 nM
[11]
  inhibition: < 50%
[12]
  inhibition: < 50%
[13]
  Ki: 47 nM
[14]
  inhibition: < 50%
[15]
  Stability: Stable

## Cc1ccc(CNC2CCC3(CC2)O[C@@H](O)Cc2ccccc23)c(C)c1 (some centres undefined)
[1]
  Ki: 66 nM

## COc1cc2c(cc1OC)CN(C1CCC3(CC1)O[C@H](CCF)Cc1ccccc13)CC2 (some centres undefined)
[13]
  Ki: 807 nM

## COc1cccc2c1CCCC2CCCN1CCN(C2CCCCC2)CC1 (centres undefined)
[1]
  Ki: 0.68 nM
[16]
  Ki: 0.68 nM

## CN1CCN(CCc2ccc(Cl)c(Cl)c2)CC1
[17]
  Activity: Active
[18]
  Activity: Active

## Cc1ccc(CNC2CCC3(CC2)O[C@@H](CCF)Cc2ccccc23)c(C)c1 (some centres undefined)
[13]
  Ki: 966 nM

## CO[C@H]1Cc2ccccc2C2(CCC(NCc3ccccc3)CC2)O1 (some centres undefined)
[13]
  Ki: 158 nM

## CO[C@H]1Cc2ccccc2C2(CCC(NC3CCc4ccccc4CC3)CC2)O1 (some centres undefined)
[1]
  Ki: 77 nM
[13]
  Ki: 265 nM

## FCC[C@H]1Cc2ccccc2C2(CCC(NC3CCc4ccccc4CC3)CC2)O1 (some centres undefined)
[1]
  Ki: 527 nM
[13]
  Ki: 198 nM

## OCC[C@@H]1Cc2ccccc2C2(CCC(N3CCN(C4CCCCC4)CC3)CC2)O1 (some centres undefined)
[1]
  Ki: 172 nM
[13]
  Ki: 61 nM

## COc1cc2c(cc1OC)CN(C1CCC3(CC1)O[C@H](OC)Cc1ccccc13)CC2 (some centres undefined)
[1]
  Ki: 58 nM
[13]
  Ki: 639 nM

## CCOC(=O)C[C@@H]1Cc2ccccc2C2(CCC(N3CCN(C4CCCCC4)CC3)CC2)O1 (some centres undefined)
[1]
  Ki: 355 nM

## CO[C@@H]1Cc2ccccc2C2(CCC(N3CCN(C4CCCCC4)CC3)CC2)O1 (some centres undefined)
[1]
  Ki: 62 nM
[19]
  Ratio Ki: 10
[13]
  Ki: 6.3 nM

## CO[C@@H]1Cc2ccccc2C2(CCC(NCc3ccccc3)CC2)O1 (some centres undefined)
[13]
  Ki: 538 nM

## CO[C@H]1Cc2ccccc2C2(CCC(NCc3ccc(C)cc3C)CC2)O1 (some centres undefined)
[1]
  Ki: 54 nM

## CCOC(=O)C[C@@H]1Cc2ccccc2C2(CCC(NCc3ccc(C)cc3C)CC2)O1 (some centres undefined)
[1]
  Ki: 231 nM

## CO[C@@H]1Cc2ccccc2C2(CCC(NCc3ccc(C)cc3C)CC2)O1 (some centres undefined)
[1]
  Ki: 7.6 nM
[13]
  Ki: 736 nM

## COc1cc2c(cc1OC)CN(C1CCC3(CC1)O[C@@H](OC)Cc1ccccc13)CC2 (some centres undefined)
[1]
  Ki: 105 nM

## CO[C@H]1Cc2ccccc2C2(CCC(NCCCc3cn(-c4ccc(F)cc4)c4ccccc34)CC2)O1 (some centres undefined)
[13]
  Ki: 635 nM

## FCC[C@H]1Cc2ccccc2C2(CCC(N3CCN(C4CCCCC4)CC3)CC2)O1 (some centres undefined)
[1]
  Ki: 432 nM
[20]
  Ki: 434 nM
[21]
  Ki: 647 nM
[22]
  remaining at 1 h, 25 µM: 69.5%
[5]
  Stability: Stable
[23]
  Activity: inactive
[9]
  Ki: 31 nM
[10]
  Ki: > 1000 nM
[24]
  Activity: inactive
[17]
  Activity: Active
[13]
  Ki: 19 nM
[18]
  Activity: Active
[15]
  Stability: Stable

## CCOC(=O)C[C@H]1Cc2ccccc2C2(CCC(NCc3ccc(C)cc3C)CC2)O1 (some centres undefined)
[1]
  Ki: 159 nM
[13]
  Ki: 547 nM

## COc1cc2c(cc1OC)CN(CCCCNC(=O)c1cc(Br)cc(OC)c1OC)CC2
[1]
  Ki: 8.2 nM
[16]
  Ki: 8.2 nM

## CCOC(=O)C[C@H]1Cc2ccccc2C2(CCC(N3CCN(C4CCCCC4)CC3)CC2)O1 (some centres undefined)
[1]
  Ki: 51 nM
[2]
  inhibition: 68%
[20]
  Ki: 458 nM
[3]
  IC50: 1750 nM
[5]
  Stability: Stable
[6]
  inhibition: < 50%
[7]
  inhibition: 98%
[8]
  inhibition: < 50%
[9]
  Ki: 54 nM
[10]
  Ki: > 1000 nM
[11]
  inhibition: < 50%
[12]
  inhibition: < 50%
[14]
  inhibition: 78%
[15]
  Stability: Stable

## Cc1ccc(CNC2CCC3(CC2)O[C@@H](CCO)Cc2ccccc23)c(C)c1 (some centres undefined)
[1]
  Ki: 179 nM
[13]
  Ki: 548 nM

## CO[C@H]1Cc2ccccc2C2(CCC(N3CCN(C4CCCCC4)CC3)CC2)O1 (some centres undefined)
[1]
  Ki: 213 nM
[19]
  Ratio Ki: 50
[13]
  Ki: 4.4 nM

## COc1cc2c(cc1OC)CN(C1CCC3(CC1)O[C@H](O)Cc1ccccc13)CC2 (some centres undefined)
[1]
  Ki: 99 nM
[13]
  Ki: 583 nM

## O[C@@H]1Cc2ccccc2C2(CCC(N3CCN(C4CCCCC4)CC3)CC2)O1 (some centres undefined)
[13]
  Ki: 77 nM

## OCC[C@H]1Cc2ccccc2C2(CCC(N3CCN(C4CCCCC4)CC3)CC2)O1 (some centres undefined)
[13]
  Ki: 28 nM

## CCOC(=O)C[C@H]1Cc2ccccc2C2(CCC(N3CCc4cc(OC)c(OC)cc4C3)CC2)O1 (some centres undefined)
[1]
  Ki: 343 nM

## CO[C@@H]1Cc2ccccc2C2(CCC(NC3CCc4ccccc4CC3)CC2)O1 (some centres undefined)
[1]
  Ki: 49 nM

## Cc1ccc(CNC2CCC3(CC2)O[C@H](O)Cc2ccccc23)c(C)c1 (some centres undefined)
[1]
  Ki: 181 nM
[13]
  Ki: 349 nM

## FCC[C@@H]1Cc2ccccc2C2(CCC(NC3CCc4ccccc4CC3)CC2)O1 (some centres undefined)
[1]
  Ki: 305 nM
[13]
  Ki: 667 nM

## Cc1ccc(CNC2CCC3(CC2)O[C@H](CCO)Cc2ccccc23)c(C)c1 (some centres undefined)
[1]
  Ki: 381 nM
